Measured values: patent publication US11311576B2, “Methods of use for CAR T cells” (Seattle Children's Hospital, priority 2018, dated 2022)

Tests used:
Assay in all cases: EC17 dose response, specific lysis in co-culture with E2-CAR-T cells (LDH assay)
Assay type in all cases: cell-based, human
Conditions in all cases: 24 hours co-culture
OV90 = test system: OV90
Protocol: (§1) After 24 hours of co-culture, supernatants were harvested to determine tumor cell killing. To study the kinetics of T cell activation and FR correlation in vitro (FIG. 60A, FIG. 60B, FIG. 60C, FIG. 60D, FIG. 60E), co-cultures were carried out in FR+/− cell lines at varying E/T ratios (1:27, 1:9, 1:3, 1:1, 3:1) in the continuous presence of 10 nM EC17. The kinetics of tumor cell killing were quantified after 16 and 48 hours of co-culture. Meanwhile, a portion of the supernatants was taken after 44 hours of co-culture for measurement of IFNg, IL-2 and TNFα. Using Promega's CytoTox 96® LDH assay kit, target cell killing was quantified and expressed as specific lysis (%) which was normalized to basal levels in the absence of EC17 at defined E/T ratios. The LEGENDplex™ human Th1 cytokine panel (BioLegend, San Diego, Calif.) was used to determine CAR-T cell derived cytokines.
(§2) To study the robustness of CAR-T cell activation, 5 FR+ cell lines (KB, MDA-MB-231, HOS-FRα, THP1-FRβ, OV90) were used along with a wide range of EC17 concentration (0.1 pM to 100 μM) at an E/T ratio of 1:1 (FIG. 59A, FIG. 59B). Specific lysis (%) was quantified by Promega's LDH cytotoxicity assay kit after 24 hours of co25 culture. In all cell lines, EC17-dependent cytolysis followed a bell-shaped dose response with a somewhat broad concentration plateau (˜0.1 nM to […]) (FIG. 59A). […] However, maximal lysis obtained for each cell line ranked differently at 45% (MDA-MB-231), 27% (THP1-FRb), 18% (HOS-FRα), 15% (OV90) and 11% (KB) (FIG. 59B).

KB = test system: KB
Protocol: as §1, §2

THP1-FRβ = test system: THP1-FRβ
Protocol: as §1, §2

HOS-FRα = test system: HOS-FRα
Protocol: as §1, §2

MDA-MB-231 = test system: MDA-MB-231
Protocol: as §1, §2

[1] = Homo sapiens, EC17, E/T 1:1, curve fitted up to 100 nM, read-out: half-maximal effective concentration (EC50), specific lysis

Work on NC1=NC2N=CC(CNc3ccc(C(=O)N[C@@H](CCC(=O)NCCNC(=S)Nc4ccc(-c5c6ccc(=O)cc-6oc6cc(O)ccc56)c(C(=O)O)c4)C(=O)O)cc3)=NC2C(=O)N1 (stereo partly shown) [EC17, FA-(g)-ethylenediamine-FITC] yielded a maximal lysis (OV90; E/T 1:1) of 15%, an EC50 (OV90; Homo sapiens, OV-90, E/T 1:1, curve fitted up to 100 nM, read-out: half-maximal effective concentration (EC50), specific lysis) of 0.418 nM and a maximal lysis (KB; E/T 1:1) of 11%. The EC50 (KB; Homo sapiens, KB, E/T 1:1, curve fitted up to 100 nM, read-out: half-maximal effective concentration (EC50), specific lysis) was 0.0053 nM, the maximal lysis (THP1-FRβ; E/T 1:1) was 27% and the EC50 (THP1-FRβ; [1]) was 0.015 nM. It also gave a maximal lysis (HOS-FRα; E/T 1:1) of 18%, an EC50 (HOS-FRα; [1]) of 0.03 nM and a maximal lysis (MDA-MB-231; E/T 1:1) of 45%. The EC50 (MDA-MB-231; Homo sapiens, MDA-MB-231, E/T 1:1, curve fitted up to 100 nM, read-out: half-maximal effective concentration (EC50), specific lysis) was 0.0045 nM.
